Data set [1] can be described thus: LC-MS analysis of original compound DMSO stock. To be noted: negative mode LC-MS. In kind it is physicochemical. An excerpt:
By measuring the R2 values of fragments with and without protein present in the sample, a strong indication of the extent of protein binding can be obtained. […] This increase in R2 was reversed upon addition of the TIN2TBM competitor. […] Nevertheless, given the strong binding activity of the fragment derivative 27 in the CPMG assay, a pure stock of 27 was synthesised and put forward for further characterisation using a quantitative LO-NMR assay to determine the dissociation constant.
Supplementary Figure 3: Negative mode LC-MS analysis of compound 25. The LC-UV
This value aligned with the molecular weight of compound 27 (251 g mol-1), conﬁrming that
(1 picture or pasted object on this page, not shown here)

Another data set concerns the target TRF1TRFH. The arrangement: method as in PMID 18202258. The following applies: ITC; read-out: dissociation constant of TIN2TBM for TRF1TRFH; cited from earlier work. A general note: Isothermal titration calorimetry measures the heat released or taken up as one component is titrated into another.

On to `CCOc1ccc(S(=O)(=O)n2ccnc2)c2ccccc12` [Compound 25], for which the “stability in original screening DMSO stock” value in data set [1] is given as “degraded into compound 27”.

Regarding “Ac-RHFNLAPLGRRRVQSQWASTR-CONH2 (Ac-RHFNLAPLGRRRVQSQWASTR-NH2) [TIN2TBM]”, the Kd on TRF1TRFH was 300 nM.

The values above are taken from paper PMC12635197, “Discovery of first-in-class inhibitors of the TRF1:TIN2 protein:protein interaction by fragment screening” (Scientific Reports, 2025).
